By AUC is commonly meant concentration integrated over time. For orientation: Cmax means the peak of the concentration-time curve. As a reminder, the Tmax is the time from dosing to the highest level. A word on the t½: it is the time needed for the level to fall by half in the phase considered. Low readings indicate fast loss, high ones slow loss.

The series in a line: In vivo kinetic parameters in mouse after oral administration (plasma, LC/MS). Particulars: for half-life: read-out: t½ (converted). The method, then: 6-Week old ddY male mice were starved for 12 hours, and then used for the experiment. To the mice, Am80 (3.30 mg/kg), 3-[4-[(5,6,7,8-tetrahydro-5,5,8,8-tetramethyl-2-naphthalenyl)carbamoyl]phenyl]propionic acid (protium compound, M700, 3.56 mg/kg), or 3-[4-[(5,6,7,8-tetrahydro-5,5,8,8-tetramethyl-2-naphthalenyl)carbamoyl]phenyl]propionic acid-2,2,3,3-d4 (deuterated propionic acid derivative, Y616, 3.60 mg/kg) was orally administered (the dose in terms of molar amount was 9.4 μmol/kg for all the compounds). A 94 mM solution of each compound in DMSO was prepared, and suspended in 0.5% methylcellulose so as to be diluted 100 times, and the suspension was orally administered at a dose of 10 ml/kg by using a 1-ml syringe and a catheter for oral administration.
After 15 minutes, 30 minutes, 1 hour, 2 hours, 3 hours, 6 hours, 12 hours, and 24 hours from the administration of each compound, whole blood was collected from the mouse abdominal aorta under diethyl ether anesthesia by using a heparin-treated glass syringe and a 26G hypodermic needle (five mice were used for each compound). The collected blood was centrifuged at 13,700×g and 4° C. for 5 minutes to separate the plasma, and the separated plasma was stored at −30° C.
The plasma (100 μL) was put into a 1.5-ml tube, and added with ethyl acetate (400 μl), the mixture was stirred, ultrasonicated for 1 minute, and centrifuged at 13,700×g and 20° C. for 3 minutes, and the supernatant was collected. The residue was added with ethyl acetate (400 μl), and the mixture was subjected once again to the aforementioned procedure. The collected supernatant was put into a 1.5-ml tube in an appropriate volume, and dried with nitrogen gas. The residue was dissolved in methanol (100 μl) to obtain a sample for LC/MS.
All the samples were used for […] in a volume of 5 μl. The LC/MS apparatus used was constituted with Waters 2695 Separations Module (Nihon Waters) and 3100 Mass Detector (Nihon Waters). Each compound was quantified by the absolute calibration curve method.

Setting [1] is: Administration of M700, 3.56 mg/kg (9.4 μmol/kg) oral, ddY male mice, plasma, label = analyte measured.
The mark [2] stands for this setting: mouse, 3.3 mg/kg, Administration of AM80, 3.30 mg/kg (9.4 μmol/kg) oral, ddY male mice, plasma.
The mark [3] stands for this setting: mouse, 3.6 mg/kg, Administration of Y616, 3.60 mg/kg (9.4 μmol/kg) oral, ddY male mice, plasma, label = analyte measured.
The mark [4] stands for this setting: mouse, 3.6 mg/kg, Administration of Y616, 3.60 mg/kg (9.4 μmol/kg) oral, ddY male mice, plasma, label = analyte measured, read-out: AUC.
Where [5] appears, read: mouse, 3.6 mg/kg, Administration of Y616, 3.60 mg/kg (9.4 μmol/kg) oral, ddY male mice, plasma, label = analyte measured, read-out: Tmax.
[6] abbreviates: mouse, Administration of M700, 3.56 mg/kg (9.4 μmol/kg) oral, ddY male mice, plasma, label = analyte measured.
[7] abbreviates: mouse, Administration of M700, 3.56 mg/kg (9.4 μmol/kg) oral, ddY male mice, plasma, label = analyte measured, read-out: AUC.
The mark [8] stands for this setting: mouse, Administration of M700, 3.56 mg/kg (9.4 μmol/kg) oral, ddY male mice, plasma, label = analyte measured, read-out: Tmax.
The mark [9] stands for this setting: oral, mouse, after administration of the labelled prodrug.
Where [10] appears, read: oral, mouse, compared with the protium compound.

Where two headings read alike, the source gives them in different places.

In the case of “4-[(5,6,7,8-tetrahydro-5,5,8,8-tetramethyl-2-naphthalenyl)carbamoyl]phenylcinnamic acid [Example M700-M1]”, under setting [1], the AUC came to 0.54 µM·h, the peak level (Cmax) was 710 nM, the Tmax was found to be 30 min and the t½ was 28.2 min.

`CC1(C)CCC(C)(C)c2cc(NC(=O)c3ccc(C(=O)O)cc3)ccc21` [Am80, 4-[(5,6,7,8-tetrahydro-5,5,8,8-tetramethyl-2-naphthalenyl)carbamoyl]benzoic acid] displayed a Cmax under setting [2] of 1870 nM, a Cmax under setting [3] of 930 nM and a maximum concentration (Cmax) under setting [6] of 1060 nM. Also, the area under the curve (AUC) (mouse, 3.3 mg/kg, Administration of AM80, 3.30 mg/kg (9.4 μmol/kg) oral, ddY male mice, plasma, read-out: AUC) came out at 2.8 µM·h; the exposure (AUC) under setting [4] turned out to be 3.48 µM·h; the area under the curve (AUC) under setting [7] was found to be 2.74 µM·h. The Tmax (mouse, 3.3 mg/kg, Administration of AM80, 3.30 mg/kg (9.4 μmol/kg) oral, ddY male mice, plasma, read-out: Tmax) amounted to 30 min; the Tmax under setting [5] was 60 min; the Tmax under setting [8] stood at 60 min. The half-life under setting [2] was 48.6 min, the half-life under setting [3] is 133 min and the half-life under setting [6] was 73.2 min.

With `CC1(C)CCC(C)(C)c2cc(NC(=O)c3ccc(CCC(=O)O)cc3)ccc21` [Example M700, 3-[4-[(5,6,7,8-tetrahydro-5,5,8,8-tetramethyl-2-naphthalenyl)carbamoyl]phenyl]propionic acid], under setting [6], the peak level (Cmax) was 1620 nM and the half-life was 28.2 min. Further, the AUC under setting [7] worked out at 1.32 µM·h. In addition, the Tmax under setting [8] was 30 min.

For the compound `CC1(C)CCC(C)(C)c2cc(NC(=O)c3ccc(C(O)CC(=O)O)cc3)ccc21` (centres unmarked) [Example M700-M2, 3-[4-[(5,6,7,8-tetrahydro-5,5,8,8-tetramethyl-2-naphthalenyl)carbamoyl]phenyl]-3-hydroxypropionic acid], under setting [6], the Cmax worked out at 20 nM and the half-life is 25.8 min. Further, the area under the curve (AUC) under setting [7] came to 0.02 µM·h. Also, under setting [8], the time to peak (Tmax) is 30 min.

Regarding `[2H]C([2H])(C(=O)O)C([2H])([2H])c1ccc(C(=O)Nc2ccc3c(c2)C(C)(C)CCC3(C)C)cc1` [Example Y616, 3-[4-[(5,6,7,8-tetrahydro-5,5,8,8-tetramethyl-2-naphthalenyl)carbamoyl]phenyl]propionic acid-2,2,3,3-d4], under setting [3], the Cmax came out at 1370 nM and the half-life is 49.8 min. For the same compound, the AUC under setting [4] was determined as 1.95 µM·h. The Tmax under setting [5] stood at 30 min. Moreover, under setting [9], the “metabolic intermediate M1 generated” value was “markedly decreased” and the “metabolic intermediate M2 generated” value was “not observed”. Under setting [10], the “AUC of the prodrug” value is “increased” and the “half-life (t½) of the prodrug” value was “extended”.

For the origin of these results see patent publication US20140121407A1, “DEUTERATED PHENYLPROPIONIC ACID DERIVATIVE” (RESEARCH FOUNDATION ITSUU LABORATORY, priority 2011, published 2014).
